This is an account of results in patent US8012967B2, “Minor groove binders” (University of Strathclyde, priority 2006, dated 2011).

Holding throughout (type): cell-based
In experiment [1] the test system is Staphylococcus aureus Strain 1 (BSAC04(1)) (Clinical isolate from Glasgow Royal Infirmary). The experiment is described as follows: MIC, Staphylococcus aureus Strain 1. Conditions: Staphylococcus aureus, read-out: Minimum inhibitory concentrations (MICs), S aureus 1. As for the experimental part:
The effects of compounds of the invention in relation to inhibiting the growth of various microorganisms was determined using methods known to those skilled in the art, for example in vitro methods as described in J. Med. Chem. 47, 2133-2156 (2004) and in vivo methods as described in J. Med. Microbiol. 46, 208-213 (1997), the disclosures of which documents are hereby incorporated by reference.
In particular, minimum inhibitory concentrations (MICs) against microorganisms (e.g. S. Aureus, Streptococcus faecalis, Aspergillus niger, Candida albicans or Mycobacterium fortuitum) for compounds of the invention may be measured using procedures such as those described in A. J. Drummond and R. D. Waigh “The development of microbiological methods for phytochemical screening” Recent Res. Devel. Phytochem. 4, 143-152 (2000), the disclosures of which document are hereby incorporated by reference.
Sample dilutions were typically prepared by dissolving the test sample (2 mg) in sterile water (10 mL) to provide a working concentration of 200 μg/ml. The test wells on each 96 well microtitre plate were initially inoculated with culture medium (100 μL) using Mueller-Hinton Broth for antibacterial assays and Sabouraud Broth for antifungal assays. A solution of each test sample (100 μL) was added to one row of each plate and a series of doubling dilutions made for successive rows. Incubation was at 37° C. for antibacterial assay and 25° C. for antifungal assay. […] From the observed pattern of colour, the MIC was determined. All tests included sterility and growth controls.

The subject of experiment [2] is Staphylococcus aureus Strain 2 (NCTC 6571). Briefly: MIC, Staphylococcus aureus Strain 2. Conditions: for MIC: read-out: Minimum inhibitory concentrations (MICs), S. aureus 2. The procedure: (§1) The effects of compounds of the invention in relation to inhibiting the growth of various microorganisms was determined using methods known to those skilled in the art, for example in vitro methods as described in J. Med. Chem. 47, 2133-2156 (2004) and in vivo methods as described in J. Med. Microbiol. 46, 208-213 (1997), the disclosures of which documents are hereby incorporated by reference. In particular, minimum inhibitory concentrations (MICs) against microorganisms (e.g. S. Aureus, Streptococcus faecalis, Aspergillus niger, Candida albicans or Mycobacterium fortuitum) for compounds of the invention may be measured using procedures such as those described in A. J. Drummond and […] development of microbiological methods for phytochemical screening” Recent Res. Devel. […] The test wells on each 96 well microtitre plate were initially inoculated with culture medium (100 μL) using Mueller-Hinton Broth for antibacterial assays and Sabouraud Broth for antifungal assays. A solution of each test sample (100 μL) was added to one row of each plate and a series of doubling dilutions made for successive rows. Incubation was at 37° C. for antibacterial assay and 25° C. for antifungal assay. […] From the observed pattern of colour, the MIC was determined. All tests included sterility and growth controls.

Experiment [3] concerns Streptococcus faecalis (NCTC 775). Briefly: MIC, Streptococcus faecalis. The conditions noted are these: for MIC: read-out: Minimum inhibitory concentrations (MICs), St. faecalis. As for the experimental part:
as §1

Experiment [4] concerns Aspergillus niger (IMI 1745). The experiment is described as follows: MIC, Aspergillus niger. The conditions noted are these: for MIC: read-out: Minimum inhibitory concentrations (MICs), A. niger. The procedure: as §1
The subject of experiment [5] is Candida albicans (NCPF3179). The experiment is described as follows: MIC, Candida albicans. The conditions noted are these: for MIC: read-out: Minimum inhibitory concentrations (MICs), C. albicans. As for the experimental part:
as §1

[6] abbreviates: value in parentheses, na = not active.
The mark [7] stands for this setting: Staphylococcus aureus, NCTC6571, value in parentheses, na = not active.
[8] abbreviates: Staphylococcus aureus, NCTC6571, value outside parentheses.
The mark [9] stands for this setting: Enterococcus faecalis, NCTC775, value in parentheses, na = not active.
[10] abbreviates: Enterococcus faecalis, NCTC775, value outside parentheses.
[11] abbreviates: Aspergillus niger, value in parentheses, na = not active.
[12] abbreviates: Aspergillus niger, value outside parentheses.

Structures are written as SMILES. Values after ≈ are worked out from the molar mass of the structure shown. Where two headings read alike, the source gives them in different places.

On to `COc1cccc(/C=C/c2ccc(C(=O)Nc3cc(C(=O)Nc4cc(C(=O)NCCN5CCOCC5)n(C)c4)n(C)c3)cc2)c1` [Example 1, 4-({[4-({4-[(E)-2-(3-Methoxyphenyl)ethenyl]benzoyl}amino)-1-methyl-1H-pyrrol-2-yl]carbonyl}amino)-1-methyl-N-[2-(4-morpholinyl)ethyl]-1H-pyrrole-2-carboxamide], for which the MIC in experiment [1] (setting [6]) came to 2 µg/mL; in experiment [1] (value outside parentheses), 2.7 µM; in experiment [2] (setting [7]), 8 µg/mL; in experiment [2] (setting [8]), 11 µM; in experiment [3] (setting [9]) it was 50 µg/mL; in experiment [3] (setting [10]), 69 µM. Also, the MIC is 100 µg/mL in experiment [4] (setting [11]) and 138 µM in experiment [4] (setting [12]).

`Cn1cc(NC(=O)c2cc(NC(=O)c3cc(/C=C/c4ccc5ccccc5n4)cn3C)cn2C)cc1C(=O)NCCN1CCOCC1` [Example 11, 1-Methyl-N-[1-methyl-5-({[2-(4-morpholinyl)ethyl]amino}carbonyl)-1H-pyrrol-3-yl]-4-[({1-methyl-4-[(E)-2-(2-quinolinyl)ethenyl]-1H-pyrrol-2-yl}carbonyl)-amino]-1H-pyrrole-2-carboxamide]: the MIC in experiment [1] (setting [6]) is 4 µg/mL; in experiment [1] (value outside parentheses), 4.6 µM; in experiment [5] (Candida albicans, NCPF3179, value in parentheses, na = not active), 100 µg/mL; in experiment [5] (Candida albicans, NCPF3179, value outside parentheses), 134 µM.

Turning to `CN(C)CCCNC(=O)c1cc(NC(=O)c2cc(NC(=O)c3ccc(/C=C/c4ccncc4)cc3)cn2C)cn1C` [Example 7, N-[5-({[3-(Dimethylamino)propyl]amino}carbonyl)-1-methyl-1H-pyrrol-3-yl]-1-methyl-4-({4-[(E)-2-(4-pyridinyl)ethenyl]benzoyl}amino)-1H-pyrrole-2-carboxamide], the MIC in experiment [1] (setting [6]) stood at 16 µg/mL; in experiment [1] (value outside parentheses) it was 24 µM; in experiment [2] (setting [7]) it was 50 µg/mL; in experiment [2] (setting [8]), 75 µM; in experiment [3] (setting [9]), 25 µg/mL; in experiment [3] (setting [10]) it was 37 µM.

Regarding `Cn1cc(NC(=O)c2cc(NC(=O)c3ccc(/C=C/c4ccc5ccccc5n4)cc3)cn2C)cc1C(=O)NCCN1CCOCC1` [Example 15], the “Minimum inhibitory concentrations (MICs), S. aureus 2” value in experiment [2] (setting [6]) worked out at 100 µg/mL (≈ 158 µM). The MIC in experiment [2] (value outside parentheses), in experiment [5] (value outside parentheses) and in experiment [4] (value outside parentheses) was 134 µM throughout. The “Minimum inhibitory concentrations (MICs), C. albicans” value in experiment [5] (setting [6]) was 100 µg/mL (≈ 158 µM). For the same compound, the “Minimum inhibitory concentrations (MICs), A. niger” value in experiment [4] (setting [6]) was determined as 100 µg/mL (≈ 158 µM).

Take `Cn1cc(NC(=O)c2cc(NC(=O)c3ccc(/C=C/c4ccc5ccccc5c4)cc3)cn2C)cc1C(=O)NCCN1CCOCC1` [Example 13, 1-Methyl-N-[1-methyl-5-({[2-(4-morpholinyl)ethyl]amino}carbonyl)-1H-pyrrol-3-yl]-4-({4-[(E)-2-(2-naphthyl)ethenyl]benzoyl}amino)-1H-pyrrole-2-carboxamide]: the MIC was found to be 50 µg/mL in experiment [2] (setting [7]); 68 µM in experiment [2] (setting [8]); 100 µg/mL in experiment [3] (setting [9]); 136 µM in experiment [3] (setting [10]); 100 µg/mL in experiment [4] (setting [11]); 136 µM in experiment [4] (setting [12]).

Take `CN(C)CCCNC(=O)c1cc(NC(=O)c2cc(NC(=O)c3ccc(/C=C/c4cnc5ccccc5c4)cc3)cn2C)cn1C` [Example 5, N-[5-({[3-(Dimethylamino)propyl]amino}carbonyl)-1-methyl-1H-pyrrol-3-yl]-1-methyl-4-({4-[(E)-2-(3-quinolinyl)ethenyl]benzoyl}amino)-1H-pyrrole-2-carboxamide]: the MIC in experiment [1] (setting [6]) is 25 µg/mL; in experiment [1] (value outside parentheses), 35 µM; in experiment [2] (setting [7]) it was 25 µg/mL; in experiment [2] (setting [8]), 35 µM; in experiment [3] (setting [9]), 50 µg/mL; in experiment [3] (setting [10]), 70 µM. In addition, the values for the MIC in experiment [4] (setting [11]) and in experiment [4] (setting [12]) were 50 µg/mL and 70 µM, respectively.

`Cn1cc(NC(=O)c2cc(NC(=O)c3ccc(/C=C/c4cc5ccccc5nc4On4nnc5ccccc54)cc3)cn2C)cc1C(=O)NCCN1CCOCC1` [Example 14, 4-[(4-{(E)-2-[2-(1H-1,23-Benzotriazol-1-yloxy)-3-quinolinyl]ethenyl}benzoyl)-amino]-1-methyl-N-[1-methyl-5-({[2-(4-morpholinyl)ethyl]amino}carbonyl)-1H-pyrrol-3-yl]-1H-pyrrole-2-carboxamide]: the “Minimum inhibitory concentrations (MICs), S. aureus 2” value in experiment [2] (setting [6]) stood at 50 µg/mL (≈ 65.4 µM). The MIC in experiment [2] (value outside parentheses) is listed as 57 µM; in experiment [3] (value outside parentheses) it was 114 µM; in experiment [5] (value outside parentheses), 114 µM; in experiment [4] (value outside parentheses), 57 µM. The “Minimum inhibitory concentrations (MICs), St. faecalis” value in experiment [3] (setting [6]) was found to be 100 µg/mL (≈ 131 µM). The “Minimum inhibitory concentrations (MICs), C. albicans” value in experiment [5] (setting [6]) came to 100 µg/mL (≈ 131 µM). In addition, the “Minimum inhibitory concentrations (MICs), A. niger” value in experiment [4] (setting [6]) is 50 µg/mL (≈ 65.4 µM).

For the compound `Cn1cc(NC(=O)c2cc(NC(=O)c3csc(/C=C/c4ccc5ccccc5n4)n3)cn2C)cc1C(=O)NCCN1CCOCC1` [Example 12, N-[1-Methyl-5-({[1-methyl-5-({[2-(4-morpholinyl)ethyl]amino}carbonyl)-1H-pyrrol-3-yl]amino}carbonyl)-1H-pyrrol-3-yl]-2-[(E)-2-(2-quinolinyl)ethenyl]-1,3-thiazole-4-carboxamide], the MIC in experiment [1] (setting [6]) stood at 8 µg/mL; in experiment [1] (value outside parentheses), 10 µM.

Take `CN(C)CCCNC(=O)c1cc(NC(=O)c2cc(NC(=O)c3cc(/C=C/c4ccc([N+](=O)[O-])cc4)cn3C)cn2C)cn1C` [Example 8, N-[5-({[5-({[3-(Dimethylamino)propyl]amino}carbonyl)-1-methyl-1H-pyrrol-3-yl]amino}carbonyl)-1-methyl-1H-pyrrol-3-yl]-1-methyl-4-[(E)-2-(4-nitrophenyl)-ethenyl]-1H-pyrrole-2-carboxamide]: the MIC in experiment [2] (setting [7]) is 50 µg/mL; in experiment [2] (setting [8]), 70 µM; in experiment [3] (setting [9]) it was 50 µg/mL; in experiment [3] (setting [10]), 70 µM; in experiment [4] (setting [11]), 100 µg/mL; in experiment [4] (setting [12]) it was 140 µM.

As for `COc1cccc(/C=C/c2cccc(C(=O)Nc3cc(C(=O)Nc4cc(C(=O)NCCCN(C)C)n(C)c4)n(C)c3)c2)c1` [Example 6], the “Minimum inhibitory concentrations (MICs), S. aureus 2” value in experiment [2] (setting [6]) came to 50 µg/mL (≈ 85.8 µM). For the same compound, the MIC in experiment [2] (value outside parentheses) turned out to be 72 µM; in experiment [3] (value outside parentheses), 72 µM; in experiment [4] (value outside parentheses) it was 143 µM. Also, the “Minimum inhibitory concentrations (MICs), St. faecalis” value in experiment [3] (setting [6]) stood at 50 µg/mL (≈ 85.8 µM). Also, the “Minimum inhibitory concentrations (MICs), A. niger” value in experiment [4] (setting [6]) is 100 µg/mL (≈ 172 µM).

Take `Cn1cccc1/C=C/c1ccc(C(=O)Nc2cc(C(=O)Nc3cc(C(=O)NCCN4CCOCC4)n(C)c3)n(C)c2)cc1` [Example 3, 1-Methyl-N-[1-methyl-5-({[2-(4-morpholinyl)ethyl]amino}carbonyl)-1H-pyrrol-3-yl]-4-({4-[(E)-2-(1-methyl-1H-pyrrol-2-yl)ethenyl]benzoyl}amino)-1H-pyrrole-2-carboxamide]: the MIC in experiment [1] (setting [6]) was 4 µg/mL; in experiment [1] (value outside parentheses), 5.7 µM; in experiment [2] (setting [7]), 16 µg/mL; in experiment [2] (setting [8]), 22.9 µM; in experiment [3] (setting [9]), 12.5 µg/mL; in experiment [3] (setting [10]), 16.4 µM. Moreover, the MIC in experiment [4] (setting [11]) came to 100 µg/mL; in experiment [4] (setting [12]) it was 143 µM.

Take `CC(C)CCc1sc(NC(=O)c2cc(NC(=O)c3ccc(/C=C/c4ccc5ccccc5n4)cc3)cn2C)nc1C(=O)NCCN1CCOCC1` [Example 19, 5-Isopentyl-2-({[1-methyl-4-({4-[(E)-2-(2-quinolinyl)ethenyl]benzoyl}amino)-1H-pyrrol-2-yl]carbonyl}amino)-N-[2-(4-morpholinyl)ethyl]-1,3-thiazole-4-carboxamide]: the MIC worked out at 100 µg/mL in experiment [4] (setting [11]) and 122 µM in experiment [4] (setting [12]).
